The source of these data is PubChem BioAssay (NCI).

Molecules are shown by their SMILES.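 48-hour exposure; five concentrations; linearly interpolated endpoints. GI50 = concentration required for 50% inhibition of growth. At the TGI there is no net growth.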

Test systems include SNB-19 CNS; U251 CNS; SF-539 CNS; UO-31 renal; TK-10 renal; NCI-H23 lung; OVCAR-3 ovarian; HCT-116 colon; SN12C renal; EKVX NSCLC.
Common to all, as to assay: DTP human tumour cell line panel, 48 h

The GI50 is the concentration giving 50% growth inhibition. For orientation: TGI means the concentration giving total growth inhibition. Higher therefore signals less potent growth arrest.

In the case of `COc1cc2c(cc1Nc1nc(Nc3ccsc3C(N)=O)c3cc[nH]c3n1)N(C(=O)CN(C)C)CCC2(C)C`, the GI50 with SNB-19 CNS is 3.62 µM; in the assay with U251 CNS, 3.09 µM; with SF-539 CNS, 3.35 µM; in the assay on UO-31 renal it was 1.09 µM; in the assay on TK-10 renal, 1.36 µM; in the assay with NCI-H23 lung, 0.791 µM. Further, the GI50 with OVCAR-3 ovarian is 2.05 µM; with HCT-116 colon, 1.05 µM; with SN12C renal, 3.13 µM; in the assay on EKVX NSCLC, 0.453 µM. Besides, the TGI was determined as 7.1 µM in the assay with SNB-19 CNS; 6.25 µM in the assay with U251 CNS; 7.05 µM in the assay on SF-539 CNS; 4.69 µM in the assay on UO-31 renal; 4.97 µM with TK-10 renal; 5.15 µM with NCI-H23 lung. For the same molecule, the TGI in the assay with OVCAR-3 ovarian came to 5.17 µM; in the assay with HCT-116 colon, 4.8 µM; in the assay with SN12C renal, 7.18 µM; in the assay with EKVX NSCLC it was 4.97 µM.
On to `COC(=O)CCC(=O)CC(=O)C(=O)Nc1c(Cl)cc([N+](=O)[O-])cc1Cl`, for which the concentration for total growth inhibition (TGI) with SNB-19 CNS, with U251 CNS, in the assay with SF-539 CNS, in the assay with UO-31 renal, with TK-10 renal and with NCI-H23 lung was over 100 µM throughout. Besides, the TGI with OVCAR-3 ovarian, in the assay with HCT-116 colon, in the assay with SN12C renal and with EKVX NSCLC was over 100 µM in each case.
On to `CC(C)(C)c1cc2c3c(c1)C(C(F)(F)F)(C(F)(F)F)O[Te]3(C)OC2(C(F)(F)F)C(F)(F)F`, for which the TGI with SNB-19 CNS, with U251 CNS, in the assay on SF-539 CNS, in the assay with UO-31 renal, with TK-10 renal and with NCI-H23 lung was over 100 µM each time. The total growth inhibition concentration (TGI) in the assay with OVCAR-3 ovarian, in the assay with HCT-116 colon, with SN12C renal and in the assay on EKVX NSCLC was over 100 µM each time.
In the case of `O=C(NP(=O)(N1CC1)N1CC1)c1cc(I)ccc1I`, the total growth inhibition concentration (TGI) in the assay on SNB-19 CNS was over 100 µM; in the assay on U251 CNS, over 100 µM; in the assay on SF-539 CNS, 71.7 µM; in the assay with UO-31 renal, over 100 µM; in the assay with TK-10 renal, over 100 µM; with NCI-H23 lung, 56.1 µM. Also, the TGI in the assay on OVCAR-3 ovarian is 86.6 µM; with HCT-116 colon it was over 100 µM; with SN12C renal, over 100 µM; in the assay on EKVX NSCLC, over 100 µM.
`Nc1nc(-c2ccccc2)nc(N)c1N=O`: the GI50 was 14.4 µM with SNB-19 CNS; 5.13 µM in the assay with U251 CNS; 5.69 µM in the assay with SF-539 CNS; 10 µM with UO-31 renal; 4.68 µM in the assay with TK-10 renal; 14.6 µM in the assay with NCI-H23 lung. Further, the GI50 in the assay with OVCAR-3 ovarian is 4.17 µM; in the assay with HCT-116 colon, 4.12 µM; in the assay with SN12C renal it was 4.51 µM; in the assay on EKVX NSCLC it was 20.1 µM. Also, the TGI in the assay with SNB-19 CNS stood at 33 µM; with U251 CNS it was 17.9 µM; with SF-539 CNS it was 19.5 µM; in the assay with UO-31 renal it was 29.2 µM; in the assay with TK-10 renal, 14.8 µM; in the assay with NCI-H23 lung, 41.9 µM. The TGI with OVCAR-3 ovarian was 14 µM; with HCT-116 colon, 17.8 µM; with SN12C renal it was 18.1 µM; in the assay with EKVX NSCLC, over 100 µM.
Turning to `O=C1C2C3C=CC(C2C(=O)N1COP(=O)(O)O)C1C2C(=O)N(COP(=O)(O)O)C(=O)C2C31` (stereo not given), the concentration for total growth inhibition (TGI) in the assay on SNB-19 CNS, in the assay on U251 CNS, in the assay with SF-539 CNS, in the assay with UO-31 renal, with TK-10 renal and with NCI-H23 lung was over 100 µM throughout. Further, the TGI in the assay with OVCAR-3 ovarian is over 100 µM; in the assay on HCT-116 colon, over 57.6 µM; with SN12C renal, over 100 µM; in the assay on EKVX NSCLC it was over 100 µM.
As for `Fc1ccccc1C1CC(c2ccc3ccccc3c2)=Nc2ccccc2S1` (stereo not given), the concentration for total growth inhibition (TGI) with SNB-19 CNS, in the assay on U251 CNS, with SF-539 CNS, in the assay on UO-31 renal, with TK-10 renal and in the assay on NCI-H23 lung was over 100 µM in each case. The TGI in the assay on OVCAR-3 ovarian, in the assay on HCT-116 colon, in the assay with SN12C renal and in the assay with EKVX NSCLC was over 100 µM in each case.
With `COc1cc(O)c(C(=O)/C=C/c2ccc(O)cc2)c(O)c1[C@@H]1C[C@H](CCc2ccc(O)cc2)O[C@H](c2ccc(O)cc2)C1`, the GI50 was 3.58 µM with SNB-19 CNS; 3.31 µM with U251 CNS; 2.61 µM in the assay on SF-539 CNS; 3.17 µM with UO-31 renal; 4.55 µM with TK-10 renal; 3.14 µM with NCI-H23 lung. Further, the GI50 in the assay with OVCAR-3 ovarian is 4.18 µM; with HCT-116 colon it was 3.74 µM; in the assay with SN12C renal it was 4.36 µM; in the assay on EKVX NSCLC, 4.35 µM. Moreover, the total growth inhibition concentration (TGI) with SNB-19 CNS came to 13.3 µM; with U251 CNS, 11.5 µM; in the assay on SF-539 CNS it was 7.4 µM; in the assay on UO-31 renal, 14.1 µM; with TK-10 renal it was 17.1 µM; with NCI-H23 lung, 9.3 µM. The total growth inhibition concentration (TGI) in the assay on OVCAR-3 ovarian amounted to 21 µM; in the assay with HCT-116 colon, 11.1 µM; in the assay with SN12C renal, 20.3 µM; with EKVX NSCLC it was 15.8 µM.
On to `CCOC(=O)C(=Cc1ccc(Oc2ccccc2)cc1)C(=O)OCC`, for which the total growth inhibition concentration (TGI) in the assay with SNB-19 CNS stood at 17.5 µM; in the assay on U251 CNS, 9.25 µM; with SF-539 CNS, 10.3 µM; in the assay with UO-31 renal it was 11.8 µM; with TK-10 renal, 19.4 µM; with NCI-H23 lung it was 6.93 µM. For the same molecule, the TGI stood at 19.1 µM in the assay on OVCAR-3 ovarian, 5.93 µM with HCT-116 colon, 5.65 µM in the assay with SN12C renal and 29.4 µM in the assay on EKVX NSCLC.
For the molecule `CN1c2ccccc2C(C)(C)C12C=Cc1cc(O)ccc1O2` (stereo not given), the GI50 is 2.94 µM in the assay on SNB-19 CNS; 3.18 µM in the assay on U251 CNS; 1.94 µM in the assay with SF-539 CNS; 4.02 µM with UO-31 renal; 2.94 µM with TK-10 renal; 2.97 µM in the assay on NCI-H23 lung. Also, the GI50 in the assay with OVCAR-3 ovarian was 2.16 µM; with HCT-116 colon, 2.8 µM; in the assay on SN12C renal, 3.19 µM; in the assay on EKVX NSCLC, 3.66 µM. The TGI was 8.46 µM with SNB-19 CNS; 10.9 µM with U251 CNS; 4.15 µM in the assay with SF-539 CNS; 19.5 µM in the assay with UO-31 renal; 9.63 µM with TK-10 renal; 13.8 µM with NCI-H23 lung. Also, the total growth inhibition concentration (TGI) with OVCAR-3 ovarian was found to be 5.23 µM; in the assay on HCT-116 colon, 11.8 µM; with SN12C renal it was 17.2 µM; in the assay with EKVX NSCLC it was 14.5 µM.
